In patent publication US11820756B2, “Bradykinin B2 receptor antagonists” (Pharvaris Netherlands B.V., priority 2017, dated 2023):

Target: T1, human bradykinin B2 receptor (hB2R) (Homo sapiens, UniProt P30411)
T1 sequence (P30411 1-391): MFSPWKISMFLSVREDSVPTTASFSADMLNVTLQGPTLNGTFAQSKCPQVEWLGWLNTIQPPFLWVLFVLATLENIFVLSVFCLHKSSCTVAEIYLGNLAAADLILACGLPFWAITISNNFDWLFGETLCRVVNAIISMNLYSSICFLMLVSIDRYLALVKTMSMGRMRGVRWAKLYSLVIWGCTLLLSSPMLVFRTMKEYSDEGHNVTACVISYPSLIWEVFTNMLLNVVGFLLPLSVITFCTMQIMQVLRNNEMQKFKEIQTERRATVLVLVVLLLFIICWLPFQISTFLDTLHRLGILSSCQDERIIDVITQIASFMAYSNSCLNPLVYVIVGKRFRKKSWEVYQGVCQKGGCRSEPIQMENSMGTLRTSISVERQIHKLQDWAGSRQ
Assay: cell-based human bradykinin B2 receptor calcium mobilization (hB2R-CaM) assay
Conditions: HTS041C cells, bradykinin at EC80, calcium mobilization; read-out: IC50-value towards human bradykinin B2 receptor (hB2R)
How it was run: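 HTS041C cells stably expressing hB2R were serum-reduced, loaded with Calcium 6 dye and pre-incubated with compound (8-point, n=2, 0.1% DMSO) for 25 min at 37° C. Bradykinin was then added at EC80. IC50 came from a 4-parameter logistic fit of the max-min fluorescence signal (485/525 nm).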

| SMILES | IC50 [nM] |
| --- | --- |
| Cc1cc(-n2cnc(C)n2)c2cccc(OCc3c(Cl)cc(F)cc3[C@H](C)NC(=O)c3cnco3)c2n1 [Compound 96] | 51 to 250 |
| Cc1cc(-n2nccn2)c2cccc(OCc3c(Cl)cc(F)cc3[C@H](C)NC(=O)[C@H](C)O)c2n1 [Compound 32] | 51 to 250 |
| Cc1cc(-n2cc(F)cn2)c2cccc(OCc3c(Cl)cc(F)cc3[C@H](C)NC(=O)[C@@H](O)CC(C)C)c2n1 [Compound 46] | 51 to 250 |
| Cc1cc(-n2nc(C)nc2C)c2cccc(OCc3c(Cl)cc(F)cc3[C@H](C)NC(=O)C(C)(C)O)c2n1 [Compound 138] | 51 to 250 |
| CC[C@@H](O)C(=O)N[C@@H](C)c1cc(F)cc(Cl)c1COc1cccc2c(-n3ncnc3C)cc(C)nc12 [Compound 99] | 51 to 250 |
| Cc1cc(-n2nccn2)c2cccc(OCc3c(Cl)cc(F)cc3[C@H](C)NC(=O)[C@@H](C)O)c2n1 [Compound 31] | 51 to 250 |
| Cc1cc(-n2ncc(F)c2C)c2cccc(OCc3c(Cl)cc(F)cc3[C@H](C)NC(=O)[C@@H](C)O)c2n1 [Compound 8, (R)—N—((S)-1-(3-chloro-5-fluoro-2-((4-(4-fluoro-5-methyl-1H-pyrazol-1-yl)-2-methylquinolin-8-yloxy)methyl)phenyl)ethyl)-2-hydroxypropanamide] | 51 to 250 |
| Cc1cc(-n2cc(F)cn2)c2cccc(OCc3c(Cl)cc(F)cc3[C@H](C)NC(=O)C(C)C(F)(F)F)c2n1 (stereo partly drawn) [Compound 54] | 51 to 250 |
| Cc1cc(-n2cc(F)cn2)c2cccc(OCc3c(Cl)cc(F)cc3[C@H](C)NC(=O)c3cc(C)on3)c2n1 [Compound 88] | 51 to 250 |
| CCC[C@H](O)C(=O)N[C@@H](C)c1cc(F)cc(Cl)c1COc1cccc2c(-n3cc(F)cn3)cc(C)nc12 [Compound 50] | 51 to 250 |
| Cc1cc(-n2cc(F)cn2)c2cccc(OCc3c(Cl)cc(F)cc3[C@H](C)NC(=O)C(C)(C)O)c2n1 [Compound 23] | 51 to 250 |
| Cc1cc(-n2nc(C)nc2C)c2cccc(OCc3c(Cl)cc(F)cc3[C@H](C)NC(=O)c3coc(C)n3)c2n1 [Compound 137] | 51 to 250 |
| Cc1cc(-n2cnc(C)n2)c2cccc(OCc3c(Cl)cc(F)cc3[C@H](C)NC(=O)[C@@H](C)O)c2n1 [Compound 98] | 251 to 1000 |
| Cc1cc(-n2cc(F)cn2)c2cccc(OCc3c(Cl)cc(F)cc3[C@H](C)NC(=O)[C@H]3CCC(=O)N3)c2n1 [Compound 115] | 51 to 250 |
| CC(=O)C(=O)N[C@@H](C)c1cc(F)cc(Cl)c1COc1cccc2c(-n3cc(F)cn3)cc(C)nc12 [Compound 55] | 251 to 1000 |
| CC[C@H](NC(=O)c1ccon1)c1cc(F)cc(Cl)c1COc1cccc2c(-n3cc(F)cn3)cc(C)nc12 [Compound 153] | 51 to 250 |
| Cc1cc(-n2cc(F)cn2)c2cccc(OCc3c(Cl)cc(F)cc3[C@H](C)NC(=O)[C@@H]3CNC(=O)N3)c2n1 [Compound 113] | 51 to 250 |
| Cc1cc(-c2ncnn2C)c2cccc(OCc3c(Cl)cc(F)cc3[C@H](C)NC(=O)c3cnco3)c2n1 [Compound 120] | ≤ 50 |
| Cc1cc(-n2cc(F)cn2)c2cccc(OCc3c(Cl)cc(F)cc3[C@H](C)NC(=O)C3CNC3)c2n1 [Compound 68] | 51 to 250 |
| Cc1cc(-c2ncc(C#N)n2C)c2cccc(OCc3c(Cl)cc(F)cc3[C@H](C)NC(=O)CC(F)(F)F)c2n1 [Compound 206] | ≤ 50 |
| [2H][C@@](C)(NC(=O)[C@H](C)F)c1cc(F)cc(Cl)c1COc1cccc2c(-n3ncnc3C)cc(C)nc12 [Compound 212] | ≤ 50 |
| Cc1cc(-n2cc(F)cn2)c2cccc(OCc3c(Cl)cc(F)cc3[C@H](C)NC(=O)[C@H](O)C(C)C)c2n1 [Compound 67] | 51 to 250 |

The remaining lines, values ahead:

| IC50 [nM] | SMILES |
| --- | --- |
| ≤ 50 | Cc1cc(-c2ncc(C#N)n2C)c2cccc(OCc3c(Cl)cc(F)cc3[C@H](C)NC(=O)COC(F)F)c2n1 [Compound 205] |
| ≤ 50 | Cc1cc(-c2[nH]ncc2C)c2cccc(OCc3c(Cl)cc(F)cc3[C@H](C)NC(=O)[C@@H](C)O)c2n1 [Compound 188] |
| ≤ 50 | CC[C@H](NC(=O)COC(F)(F)F)c1cc(F)cc(Cl)c1COc1cccc2c(-n3ncnc3C)cc(C)nc12 [Compound 167] |
| ≤ 50 | Cc1cc(-n2cc(F)cn2)c2cccc(OCc3c(Cl)cc(F)cc3[C@H](C)NC(=O)[C@@H]3CCCO3)c2n1 [Compound 14] |
| ≤ 50 | Cc1cc(-c2ccnn2C)c2cccc(OCc3c(Cl)cc(F)cc3[C@H](C)NC(=O)c3cnco3)c2n1 [Compound 196] |
| ≤ 50 | [2H][C@@](C)(NC(=O)[C@@H](C)F)c1cc(F)cc(Cl)c1COc1cccc2c(-n3ncnc3C)cc(C)nc12 [Compound 11C, (R)—N—((S)-1-deutero-1-(3-chloro-5-fluoro-2-((2-methyl-4-(5-methyl-1H-1,2,4-triazol-1-yl)quinolin-8-yloxy)methyl)phenyl)ethyl)-2-fluoropropanamide] |
| ≤ 50 | [2H][C@@](C)(NC(=O)[C@@H](C)F)c1cc(F)cc(Cl)c1COc1cccc2c(-c3ncnn3C)cc(C)nc12 [Compound 211] |
| ≤ 50 | Cc1cc(-c2ccnn2C)c2cccc(OCc3c(Cl)cc(F)cc3[C@H](C)NC(=O)[C@H](C)O)c2n1 [Compound 195] |
| ≤ 50 | Cc1cc(-c2ncnn2C)c2cccc(OCc3c(Cl)cc(F)cc3[C@H](C)NC(=O)CC(F)F)c2n1 [Compound 197] |
| ≤ 50 | Cc1cc(-n2cc(F)cn2)c2cccc(OCc3c(Cl)cc(F)cc3[C@H](C)NC(=O)C(CO)CO)c2n1 [Compound 71] |
| ≤ 50 | Cc1cc(-c2ncnn2C)c2cccc(OCc3c(Cl)cc(F)cc3[C@H](C)NC(=O)C3CCCCC3)c2n1 [Compound 144] |
| ≤ 50 | Cc1cc(-n2cc(F)cn2)c2cccc(OCc3c(Cl)cc(F)cc3[C@H](C)NC(=O)[C@H]3CCCO3)c2n1 [Compound 20] |
| ≤ 50 | CCn1ncnc1-c1cc(C)nc2c(OCc3c(Cl)cc(F)cc3[C@H](C)NC(=O)COC(F)F)cccc12 [Compound 140] |
| ≤ 50 | CCn1ncnc1-c1cc(C)nc2c(OCc3c(Cl)cc(F)cc3[C@H](C)NC(=O)c3coc(C)n3)cccc12 [Compound 142] |
| ≤ 50 | Cc1cc(-c2ncnn2C)c2cccc(OCc3c(Cl)cc(F)cc3[C@H](C)NC(=O)[C@H](C)F)c2n1 [Compound 203] |
| ≤ 50 | [2H][C@@](C)(NC(=O)C(F)F)c1cc(F)cc(Cl)c1COc1cccc2c(-c3ncnn3C)cc(C)nc12 [Compound 183] |

| IC50 [nM] | SMILES |
| --- | --- |
| ≤ 50 | CCc1ncnn1-c1cc(C)nc2c(OCc3c(Cl)cc(F)cc3[C@H](C)NC(=O)C(C)F)cccc12 (stereo partly drawn) [Compound 172] |
| ≤ 50 | Cc1cc(-n2cc(F)cn2)c2cccc(OCc3c(Cl)cc(F)cc3[C@H](C)NC(=O)C3CCO3)c2n1 (stereo partly drawn) [Compound 56] |
| ≤ 50 | CC[C@H](NC(=O)c1cocn1)c1cc(F)cc(Cl)c1COc1cccc2c(-n3ncnc3C)cc(C)nc12 [Compound 165] |
| ≤ 50 | Cc1cc(-n2cc(F)cn2)c2cccc(OCc3c(Cl)cc(F)cc3[C@H](C)NC(=O)C3COC3)c2n1 [Compound 57] |
| ≤ 50 | Cc1cc(-c2ccnn2C)c2cccc(OCc3c(Cl)cc(F)cc3[C@H](C)NC(=O)COC(F)F)c2n1 [Compound 175] |
| ≤ 50 | Cc1cc(-n2cc(F)cn2)c2cccc(OCc3c(Cl)cc(F)cc3[C@H](C)NC(=O)c3cncs3)c2n1 [Compound 90] |
| ≤ 50 | Cc1cc(-n2ncnc2C)c2cccc(OCc3c(Cl)cc(F)cc3[C@H](C)NC(=O)c3ccon3)c2n1 [Compound 157] |
| ≤ 50 | Cc1cc(-n2cc(F)cn2)c2cccc(OCc3c(Cl)cc(F)cc3[C@H](C)NC(=O)[C@@H]3CC[C@H](C)O3)c2n1 [Compound 132] |
| ≤ 50 | CCc1ncnn1-c1cc(C)nc2c(OCc3c(Cl)cc(F)cc3[C@H](C)NC(=O)COC(F)F)cccc12 [Compound 169] |
| ≤ 50 | Cc1cc(-n2cc(F)cn2)c2cccc(OCc3c(Cl)cc(F)cc3[C@H](C)NC(=O)[C@H]3CCOC3)c2n1 [Compound 15] |
| ≤ 50 | Cc1cc(-n2ncnc2C)c2cccc(OCc3c(Cl)cc(F)cc3[C@H](C)NC(=O)COC(F)(F)F)c2n1 [Compound 161] |
| ≤ 50 | Cc1cc(-n2cc(F)cn2)c2cccc(OCc3c(Cl)cc(F)cc3[C@H](C)NC(=O)c3coc(C)n3)c2n1 [Compound 92] |
| ≤ 50 | Cc1cc(-c2[nH]ncc2C)c2cccc(OCc3c(Cl)cc(F)cc3[C@H](C)NC(=O)c3cnco3)c2n1 [Compound 187] |
| ≤ 50 | Cc1cc(-c2ccnn2C)c2cccc(OCc3c(Cl)cc(F)cc3[C@H](C)NC(=O)[C@@H](C)O)c2n1 [Compound 192] |
| ≤ 50 | CO[C@@H](C)C(=O)N[C@@H](C)c1cc(F)cc(Cl)c1COc1cccc2c(-n3cc(F)cn3)cc(C)nc12 [Compound 16] |
| ≤ 50 | COCC(=O)N[C@@H](C)c1cc(F)cc(Cl)c1COc1cccc2c(-c3ncnn3C)cc(C)nc12 [Compound 83] |
